From PubChem BioAssay (NCI)
Where “and” joins values, the source holds several entries; their conditions need not be identical. Equal values may be shown once.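 1) Cells in 96-well plates. 2) Compound, 48 h, 5 concentrations. 3) Linear interpolation between surrounding doses. 4) Unreached endpoint = highest concentration. GI50 marks 50% less growth. TGI marks complete inhibition of growth.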

Key:
Test in all cases: growth of human tumour cells (NCI), 48 h
[1] = test system: SW-620 colon
[2] = test system: MALME-3M melanoma
[3] = test system: KM12 colon
[4] = test system: T-47D breast
[5] = test system: NCI/ADR-RES ovarian
[6] = test system: SF-268 CNS
[7] = test system: MOLT-4 leukemia
[8] = test system: K-562 leukemia
[9] = test system: SNB-19 CNS
[10] = test system: HL-60(TB) leukemia

SMILES	GI50 [1]	TGI [1]	GI50 [2]	TGI [2]	GI50 [3]	TGI [3]	GI50 [4]	TGI [4]	GI50 [5]	TGI [5]	GI50 [6]	TGI [6]	GI50 [7]	TGI [7]	GI50 [8]	TGI [8] [µM]	GI50 [9]	TGI [9]	GI50 [10]	TGI [10]
CCN1C(=O)N(CC)C2C1NN=c1s/c(=C\c3ccc(OC)cc3)c(=O)n12 (stereo not drawn)	0.136 µM	> 100 µM	0.304 µM	> 100 µM	0.0716 µM	> 100 µM	0.163 µM	> 100 µM	0.0744 µM	> 100 µM	0.577 µM	> 80.1 µM	0.378 µM	> 100 µM	0.053 µM	> 100	0.471 µM	> 100 µM	0.174 µM	0.477 µM
COc1cc(/C=C/c2ccccn2)cc(OC)c1OC		> 10 µM		> 10 µM		> 10 µM		> 10 µM		> 10 µM		> 10 µM		> 10 µM		> 10		> 10 µM		> 10 µM
O=C1NC(=O)C(c2c[nH]c3ccccc23)=C1c1ccccc1	> 25 µM	> 25 µM	> 25 µM	> 25 µM	> 25 µM	> 25 µM	> 25 µM	> 25 µM	> 25 µM	> 25 µM	> 25 µM	> 25 µM	> 25 µM	> 25 µM	> 25 µM	> 25	> 25 µM	> 25 µM	> 25 µM	> 25 µM
COc1cc(NC(=O)c2ccccc2Nc2ccnc(C(F)(F)F)c2)cc(OC)c1OC	> 100 µM	> 100 µM	82.2 µM	> 100 µM	54.9 µM	> 100 µM	17.7 µM	91.9 µM	32.3 µM	> 100 µM	> 100 µM	> 100 µM	36.9 µM	> 100 µM	52.8 µM	> 100	77.1 µM	> 100 µM	44.3 µM	> 100 µM
CC12CC(=O)C3C(CCC4=CC(=O)CCC43C)C1CC=C2CC(=O)O (stereo not drawn)		> 100 µM		> 100 µM		> 100 µM		> 100 µM		> 100 µM		> 100 µM		> 100 µM		> 100		> 100 µM		> 100 µM
COC(=O)c1ccc2c(C(=Nc3ccc(N(C)C(=O)CN4CCN(C)CC4)cc3)c3ccccc3)c(O)[nH]c2c1	1.87 µM	4.14 µM	1.37 µM and 1.44 µM	2.94 µM and 3.46 µM	0.066 µM and 0.073 µM	2.05 µM and 1.98 µM	3.66 µM and 16.7 µM	36.3 µM and > 100 µM	14.4 µM and > 32.7 µM	> 100 µM	1.79 µM and 2.29 µM		2.21 µM and 2.74 µM	22.1 µM and > 100 µM	0.224 µM and 0.466 µM	> 100	2.6 µM and 3.55 µM	> 100 µM	9.41 µM and 9.59 µM	32.3 µM and 32.1 µM
N#Cc1ccc(/C=C/C(=O)c2ccccc2)cc1	2.72 µM and 1.77 µM	7.73 µM and 3.45 µM	18.2 µM and 14.9 µM	33.6 µM and 31 µM	1.79 µM and 1.83 µM	3.46 µM and 3.54 µM	11.1 µM and 12.2 µM	24.7 µM and 27.7 µM	22.8 µM and 24.2 µM	54.8 µM and 69.8 µM	13.3 µM and 9.61 µM	26.7 µM and 25.4 µM	9.4 µM and 6.4 µM	53.3 µM and > 38.9 µM	2.83 µM and 2.3 µM	> 26.2	14.4 µM and 12.5 µM	27.4 µM and 25.1 µM	9.07 µM and 3.2 µM	48.4 µM and > 33.1 µM
CNCCN(C)Cc1cn[nH]c1-c1ccc(OC2CC(OCCC3CCOCC3)C2)cc1 (stereo not drawn)	> 100 µM	> 100 µM	28.4 µM	> 100 µM	> 83.9 µM	> 100 µM	27.8 µM	> 100 µM	> 100 µM	> 100 µM	> 100 µM	> 100 µM	> 80.2 µM	> 100 µM	33.3 µM	> 100	> 100 µM	> 100 µM	> 80.1 µM	> 100 µM
CCc1ccc([O-])c(C=NCCCN(C)CCCN=Cc2cc(C)ccc2[O-])c1.[Co+3].[N-]=[N+]=[N-]	50 µg/mL and > 150 µg/mL	50 µg/mL and > 150 µg/mL	50 µg/mL and 82.6 µg/mL	50 µg/mL and > 150 µg/mL	50 µg/mL and > 150 µg/mL	50 µg/mL and > 150 µg/mL	40 µg/mL	50 µg/mL	50 µg/mL and 47.4 µg/mL	50 µg/mL and 47.4 µg/mL	21.9 µg/mL and 53.3 µg/mL	50 µg/mL and > 150 µg/mL	> 150 µg/mL	> 150 µg/mL	5 µg/mL and 74 µg/mL		40.6 µg/mL and 61.6 µg/mL	50 µg/mL and 123 µg/mL	61 µg/mL	> 150 µg/mL
Fc1ccc(C2C3CCOc4c(ccc5ccccc45)C3=NN2c2ccccc2)cc1 (stereo not drawn)	> 100 µM	> 100 µM	> 38.7 µM	> 100 µM	> 100 µM	> 100 µM	25.4 µM	> 94.8 µM	> 100 µM	> 100 µM	> 77.9 µM	> 100 µM	30.7 µM	> 100 µM	49 µM	> 100	99.2 µM	> 100 µM	> 100 µM	> 100 µM
COC(=O)C1(C)CCCC2(C)c3cc(OC)ccc3C(=O)C(Br)C12 (stereo not drawn)		4.39 µM		9.71 µM		> 10 µM		> 10 µM		> 10 µM		> 10 µM		4.17 µM		> 10		> 10 µM		4.2 µM
N=C1/C(=C2\Nc3ccccc3S2)CC(=O)N1c1ccc(SC(F)F)cc1	5.37 µM	> 100 µM	> 100 µM	> 100 µM	8.13 µM	> 100 µM	27.8 µM	> 100 µM	6.52 µM	> 100 µM	4.45 µM	> 100 µM	1.42 µM	> 100 µM	1.65 µM	> 100	29.1 µM	> 100 µM	5.02 µM	> 100 µM
COc1ccc(-c2nc3sccn3c2-c2ccnc(NCCCNS(=O)(=O)c3ccc(F)cc3)n2)cc1	3.87 µM	44.4 µM	2.6 µM	7.86 µM	2.57 µM	9.24 µM	0.866 µM	4.87 µM	1.98 µM	6.16 µM	3.05 µM	48.3 µM	1.9 µM	7.67 µM	1.43 µM	> 100	4.43 µM	> 100 µM	2.64 µM	9.22 µM
OCc1ccc(N(Cc2ccc(F)cc2)CC2CCC2)cc1Cl	7.02 µM	21 µM	16.3 µM	31.8 µM	14 µM	27.8 µM	2.11 µM	12.2 µM	12.8 µM	28 µM	17.1 µM	32.1 µM	13.7 µM	33.4 µM	6.4 µM	22.7	14 µM	27.3 µM	12.1 µM	28.9 µM
